# Results from patent publication US10800741B2 (ANCUREALL PHARMACEUTICAL (SHANGHAI) CO., LTD., priority 2017, dated 2020).
# Assays:
# NCI-H1581 = NCI-H1581 subcutaneous transplantation tumor model, tumor growth inhibition in vivo; parameters: species or system Bab/c immunodeficient mice; settings: 17th day after the administration
# Excerpt: Test Example 7 Inhibition of Tumour Cell Growth In Vivo
# In order to establish subcutaneous transplantation tumor models of human non-small cell lung cancer and endometrial adenocarcinoma, Bab/c immunodeficient mice were subcutaneously inoculated with NCI-H1581 (ATCC) and AN3-CA (ATCC) cells, respectively.
# Experimental animals: 6-week female Bab/c immunodeficient mice (about 20 g in weight). The mice were purchased from Shanghai Sippr-BK Experimental Animal Co., Ltd., raised in Animal Center of Shanghai University of Traditional Chinese Medicine, approved by Ethical Committee of Shanghai University of Traditional Chinese Medicine. The breeding environment was SPF grade.
# Test samples: the present compounds 66 (purity: 99%), solid powder, stored at 4˜8° C.
# Cells and animal models: NCI-H1581 cells were cultured in RPMI 1640 medium containing 10% fetal bovine serum. Log-phase NCI-H1581 cells were collected and re-suspended with PBS to 2.5×10^7 cells per ml for subcutaneous single-point inoculation of Bab/c immunodeficient mice at the right side of the back of mouse (5×10^6 cells, 0.2 ml).
# When the tumor volume reached 100˜200 mm^3, the mice were randomly divided according to tumor size. The experiment was divided into solvent control group and drug administration group (compound 66 group). 6 mice in each group were administered 0.1 ml per 10 g body weight by intraperitoneal injection (i.p) once a day. The tumor was measured three times a week, and the tumor volume was calculated as: long diameter×short diameter^2/2. When the average tumor volume of the control group reached 2000 mm^3, the experiment was over and then the tumor was weighed and subjected to molecular pathology assay. Efficacy was assessed based on relative tumor growth inhibition value (TGI), and safety was assessed based on animal weight change.
# Preparation of test samples: appropriate amount of compound 66 was weighed and mixed with ultrapure water; and methanesulfonic acid was added for clarification; and then 4M NaOH was added to adjust the PH to 3.8; and a final volume was made up with ultrapure water. The final concentrations were 0.5 mg/ml and 0.25 mg/ml, respectively.
# T/C % refers to the relative tumor growth rate, that is, the percentage of relative tumor volume or tumor weight of the administration group and the control group at a certain time point. […]
# Tumor volume data of 17 days after the start of administration were selected for statistical analysis among different groups, and independent sample T test was used to compare whether there were significant differences in relative tumor volume between the administration group and the control group. All data were analyzed using SPSS 18.0. […]
# [1] = system: human intestinal cancer cell line HCT116 (KRAS G13D mutation); test: Growth inhibition in combination with MEK1/2 inhibitor Trametinib, HCT116 (KRAS G13D mutation); type: cell-based; settings: 5 days
# Method: Test Example 5 Synergistic Inhibition Effect of the Present Compounds in Combination with MEK1/2 Inhibitor on the Growth of RAS Mutant Tumor Cells In Vitro
# The cell culture, drug treatment and MTT assay of human intestinal cancer cell line HCT116 (KRAS G13D mutation) and human non-small cell lung cancer cell line NCI-H1299 (NRAS Q61K mutation) were performed according to the method of test example 1. Cells were treated with the MEK1/2 inhibitor Trametinib at 25 nM, 2.5 nM and 0.25 nM alone or in combination with compound 66 or 125 of the present invention (5 days).
smiles,measurement,setting,value
"COCCOc1cc2nccc(Oc3ccc(NC(=O)Nc4cc(C(C)(C)C)n[nH]4)c(Cl)c3)c2cc1NC(C)=O [Compound 66, N-[4-{4-[3-(5-tert-butyl-2H-pyrazol-3-yl)-ureido]-3-chloro-phenoxy}-7-(2-methoxy-ethoxy)-quinolin-6-yl]-acetamide]",T/C (%),NCI-H1581; 2.5 mg/kg i.p once a day,7.91%
same,TGI (%),NCI-H1581; 2.5 mg/kg i.p once a day,92.09%
same,T/C (%),NCI-H1581; 5 mg/kg i.p once a day,1.07%
same,TGI (%),NCI-H1581; 5 mg/kg i.p once a day,98.93%
same,inhibition at 0.0078 µM,"[1]; Homo sapiens, HCT-116, 120 h, compound 7.8 nM alone (solvent instead of Trametinib), read-out: cell growth inhibition (percentage)",7.67%
same,inhibition at 0.0156 µM,"[1]; Homo sapiens, HCT-116, 120 h, compound 15.6 nM alone (solvent instead of Trametinib), read-out: cell growth inhibition (percentage)",22%
same,cell growth inhibition (percentage),[1]; compound 7.8 nM + Trametinib 0.25 nM,62.24%
same,cell growth inhibition (percentage),[1]; compound 7.8 nM + Trametinib 2.5 nM,73.79%
same,cell growth inhibition (percentage),[1]; compound 7.8 nM + Trametinib 25 nM,80.52%
same,cell growth inhibition (percentage),[1]; compound 15.6 nM + Trametinib 0.25 nM,66.72%
same,cell growth inhibition (percentage),[1]; compound 15.6 nM + Trametinib 2.5 nM,77.07%
same,cell growth inhibition (percentage),[1]; compound 15.6 nM + Trametinib 25 nM,81.03%
